Article PMC7567097, “A nanoluciferase SARS-CoV-2 for rapid neutralization testing and screening of anti-infective drugs for COVID-19” (Nature Communications, 2020)
Several values for one entry are separate records, joined by “and”; a condition that tells them apart may be missing. Equal values may be shown once. Read-outs that look alike come from different tables or passages of the source.

Key:
[1] = data from literature; ref [51]-[68]; cited from earlier work
SARS-CoV-2-Nluc [2] = assay: microbe, parasite or virus in culture; type: cell-based
in vitro = conditions: human; for viability: cell viability (% of DMSO control)
Vero E6 cells = assay: Cytotoxicity assay (CCK-8, 72 h) in Vero E6 cells; type: cell-based, African green monkey; conditions: Vero, two replicates
[3] = Cytotoxicity assay (CCK-8, 72 h) in Vero E6 cells; type: cell-based, African green monkey; conditions: African green monkey, Vero E6 cells; for viability at 72 h: Vero, two replicates, read-out: cell viability (% of DMSO control)
SARS-CoV-2-Nluc [4] = assay: microbe, parasite or virus in culture; type: cell-based; conditions: Severe acute respiratory syndrome coronavirus 2, Vero C1008, 48 h
[5] = human exposures in the clinic, approved dosing schedules, ref [51]-[68], cited from earlier work; for Cmax: read-out: Exposure Cmax
[6] = Severe acute respiratory syndrome coronavirus 2, 48 h
[7] = Severe acute respiratory syndrome coronavirus 2, read-out: EC50 (µM) Replicate 1
[8] = Severe acute respiratory syndrome coronavirus 2, read-out: EC50 (µM) Replicate 2
[9] = read-out: EC50 (µM) Replicate 1
[10] = read-out: EC50 (µM) Replicate 2

CC(C)CN(C[C@@H](O)[C@H](Cc1ccccc1)NC(=O)O[C@H]1CCOC1)S(=O)(=O)c1ccc(N)cc1 [Amprenavir]
Plasma protein binding [1]: 90% | EC50 (SARS-CoV-2-Nluc [2]; [6]): > 10 µM | EC50 (SARS-CoV-2-Nluc [2]; [7]): > 10 µM | EC50 (SARS-CoV-2-Nluc [2]; [8]): > 10 µM | CC50 (in vitro; CC50): > 50 µM | CC50 (in vitro; CC50 (µM) Replicate 1): > 50 µM | CC50 (in vitro; CC50 (µM) Replicate 2): > 50 µM

O=C(NCc1c(F)cc(F)cc1F)c1cn2c(c(O)c1=O)C(=O)N1[C@H]3CC[C@H](C3)O[C@@H]1C2 [Bictegravir]
Plasma protein binding [1]: >99% | EC50 (SARS-CoV-2-Nluc [2]; [6]): > 10 µM | CC50 (in vitro; CC50): > 50 µM

O=C(NCc1c(F)cc(F)cc1F)c1cn2c(c(O)c1=O)C(=O)N1[C@H]3CC[C@H](C3)O[C@@H]1C2 [Bictegravirt]
EC50 (SARS-CoV-2-Nluc [2]; [9]): > 10 µM | EC50 (SARS-CoV-2-Nluc [2]; [10]): > 10 µM | CC50 (A549-hACE2 cells): > 50 µM

CCN(CC)CCCC(C)Nc1ccnc2cc(Cl)ccc12 (centres unmarked) [Chloroquine]
cell viability (% of DMSO control) (Vero E6 cells; Concentration 0.00152416): 109.35% | cell viability (% of DMSO control) (Vero E6 cells; Concentration 0.00457247): 115.44% | cell viability (% of DMSO control) (Vero E6 cells; Concentration 0.0137174): 94.62% | cell viability (% of DMSO control) (Vero E6 cells; Concentration 0.0411523): 86.94% and 111.97% | cell viability (% of DMSO control) (Vero E6 cells; Concentration 0.123457): 83.36% | cell viability (% of DMSO control) (Vero E6 cells; Concentration 0.37037): 78.26% | cell viability (% of DMSO control) (Vero E6 cells; Concentration 1.11111): 94.9% | cell viability (% of DMSO control) (Vero E6 cells; Concentration 3.33333): 72.03% | cell viability (% of DMSO control) (Vero E6 cells; Concentration 10): 73.87% | viability at 72 h ([3]; Concentration 0.00152416): 112% | viability at 72 h ([3]; Concentration 0.00457247): 113% | viability at 72 h ([3]; Concentration 0.0137174): 100% | viability at 72 h ([3]; Concentration 0.123457): 83.5% | viability at 72 h ([3]; Concentration 0.37037): 80.1% | viability at 72 h ([3]; Concentration 1.11111): 81.4% | viability at 72 h ([3]; Concentration 3.33333): 75.3% | viability at 72 h ([3]; Concentration 10): 76.5% | CC50 at 72 h ([3]; 3-day cytotoxicity): > 50 µM | EC50 (SARS-CoV-2-Nluc [4]): 3.52 µM | EC50 (SARS-CoV-2-Nluc [2]; [6]): 1.32 ± 0.36 µM | EC50 (SARS-CoV-2-Nluc [2]; [7]): 1.06 µM | EC50 (SARS-CoV-2-Nluc [2]; [8]): 1.57 µM | CC50 (in vitro; CC50): > 50 µM | CC50 (in vitro; CC50 (µM) Replicate 1): > 50 µM | CC50 (in vitro; CC50 (µM) Replicate 2): > 50 µM | viability (in vitro; Concentration 0.00152416): 105% | viability (in vitro; Concentration 0.00457247): 106% | viability (in vitro; Concentration 0.0137174): 103% | viability (in vitro; Concentration 0.0411523): 104% | viability (in vitro; Concentration 0.123457): 105% | viability (in vitro; Concentration 0.37037): 104% | viability (in vitro; Concentration 1.11111): 104% | viability (in vitro; Concentration 3.33333): 104% | viability (in vitro; Concentration 10): 108% | cell viability (% of DMSO control) (A549-hACE2 cells; Concentration 0.00152416): 94.76% | cell viability (% of DMSO control) (A549-hACE2 cells; Concentration 0.00457247): 100.03% | cell viability (% of DMSO control) (A549-hACE2 cells; Concentration 0.0137174): 97.21% | cell viability (% of DMSO control) (A549-hACE2 cells; Concentration 0.0411523): 100.16% | cell viability (% of DMSO control) (A549-hACE2 cells; Concentration 0.123457): 98.53% | cell viability (% of DMSO control) (A549-hACE2 cells; Concentration 0.37037): 99.78% | cell viability (% of DMSO control) (A549-hACE2 cells; Concentration 1.11111): 100.72% | cell viability (% of DMSO control) (A549-hACE2 cells; Concentration 3.33333): 101.54% | cell viability (% of DMSO control) (A549-hACE2 cells; Concentration 10): 101.98%

O=C1Nc2ccc(Cl)cc2[C@@](C#CC2CC2)(C(F)(F)F)O1 [Efavirenz]
Plasma protein binding [1]: 99.5–99.8% | Selectivity index (SI) = CC50/EC50 (SARS-CoV-2-Nluc [2]): <3.9 | EC50 (SARS-CoV-2-Nluc [2]; [6]): > 9.6 µM | EC50 (SARS-CoV-2-Nluc [2]; [7]): 9.6 µM | EC50 (SARS-CoV-2-Nluc [2]; [8]): > 10 µM | CC50 (in vitro; CC50): 37.6 ± 10.7 µM | CC50 (in vitro; CC50 (µM) Replicate 1): 45.1 µM | CC50 (in vitro; CC50 (µM) Replicate 2): 30 µM | Exposure Cmin [5]: 5.6 µM

Nc1nc(=O)n([C@@H]2CS[C@H](CO)O2)cc1F [Emtricitabine (FTC), Emtricitabine]
Plasma protein binding [1]: 4% | EC50 (SARS-CoV-2-Nluc [2]; [6]): > 10 µM | EC50 (SARS-CoV-2-Nluc [2]; [7]): > 10 µM | EC50 (SARS-CoV-2-Nluc [2]; [8]): > 10 µM | CC50 (in vitro; CC50): > 50 µM | CC50 (in vitro; CC50 (µM) Replicate 1): > 50 µM | CC50 (in vitro; CC50 (µM) Replicate 2): > 50 µM | Cmax [5]: 7.9 µM

C=CC(=O)N1CCC[C@@H](n2nc(-c3ccc(Oc4ccccc4)cc3)c3c(N)ncnc32)C1 [Ibrutinibj]
EC50 (SARS-CoV-2-Nluc [2]; [9]): > 10 µM | EC50 (SARS-CoV-2-Nluc [2]; [10]): > 10 µM | CC50 (A549-hACE2 cells): > 50 µM

Cc1cccc(C)c1OCC(=O)N[C@@H](Cc1ccccc1)[C@@H](O)C[C@H](Cc1ccccc1)NC(=O)[C@H](C(C)C)N1CCCNC1=O [Lopinavir]
Plasma protein binding [1]: 98–99% | EC50 (SARS-CoV-2-Nluc [2]; [6]): 9 ± 0.42 µM | EC50 (SARS-CoV-2-Nluc [2]; [7]): 9.3 µM | EC50 (SARS-CoV-2-Nluc [2]; [8]): 8.7 µM | CC50 (in vitro; CC50): 31.5 ± 2.5 µM | CC50 (in vitro; CC50 (µM) Replicate 1): 29.8 µM | CC50 (in vitro; CC50 (µM) Replicate 2): 33.3 µM

C[C@@]1(O)[C@H](O)[C@@H](CO)O[C@H]1n1ccc2c(N)ncnc21 [MK-0608]
EC50 (SARS-CoV-2-Nluc [2]; read-out: EC50): > 10 µM | EC50 (SARS-CoV-2-Nluc [2]; [9]): > 10 µM | EC50 (SARS-CoV-2-Nluc [2]; [10]): > 10 µM | CC50 (A549-hACE2 cells): > 50 µM

Cc1c(O)cccc1C(=O)N[C@@H](CSc1ccccc1)[C@H](O)CN1C[C@H]2CCCC[C@H]2C[C@H]1C(=O)NC(C)(C)C [Nelfinavir]
Plasma protein binding [1]: >98% | Selectivity index (SI) = CC50/EC50 (SARS-CoV-2-Nluc [2]): 15.7 | EC50 (SARS-CoV-2-Nluc [2]; [6]): 0.77 ± 0.32 µM | EC50 (SARS-CoV-2-Nluc [2]; [7]): 0.542 µM | EC50 (SARS-CoV-2-Nluc [2]; [8]): 0.993 µM | EC50 (SARS-CoV-2-Nluc [2]; Severe acute respiratory syndrome coronavirus 2, read-out: projected protein adjusted potency (paEC50)): ~30 µM | CC50 (in vitro; CC50): 12 ± 1.3 µM | CC50 (in vitro; CC50 (µM) Replicate 1): 11.1 µM | CC50 (in vitro; CC50 (µM) Replicate 2): 13 µM | Exposure Cmin [5]: 2.6 µM | Cmax [5]: 8.3 µM
